The source of these data is patent US7208500B2, “Thienopyridine-phenylacetamides and their derivatives useful as new anti-angiogenic agents” (Agouron Pharmaceuticals, Inc., priority 2003, dated 2007).

pIC50, pKi: −log10 of the molar value.

In assay [1] the target is T1, FGF-R1 intracellular kinase domain (Homo sapiens, UniProt P11362, C488A/C584S/L457V).
T1 construct: starting from the endogenous methionine residue 456 to glutamate 766; made in house; host or cells: baculovirus vector expression system
T1 sequence (P11362 456-766 L457V/C488A/C584S): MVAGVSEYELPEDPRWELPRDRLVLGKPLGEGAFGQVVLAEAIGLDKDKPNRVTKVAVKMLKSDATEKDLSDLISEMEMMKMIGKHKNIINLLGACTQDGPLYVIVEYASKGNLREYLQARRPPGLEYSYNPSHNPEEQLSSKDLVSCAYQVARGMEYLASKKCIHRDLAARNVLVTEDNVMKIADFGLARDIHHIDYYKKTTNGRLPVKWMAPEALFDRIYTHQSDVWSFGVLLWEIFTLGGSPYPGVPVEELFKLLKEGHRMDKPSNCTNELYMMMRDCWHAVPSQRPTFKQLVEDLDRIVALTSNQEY
The assay is described as follows: FGF-R spectrophotometric assay. The assay is classed as biochemical. To be noted: 50 nM test compound; read-out: FGF-P (% inh @ 50 nM). How it is done:
The intracellular kinase domain of human FGF-R1 was expressed using the baculovirus vector expression system starting from the endogenous methionine residue 456 to glutamate 766, according to the residue numbering system of Mohammadi et al., Mol. Cell. Biol., 16, 977–989 (1996). In addition, the construct also has the following 3 amino acid substitutions: L457V, C488A, and C584S.
The spectrophotometric assay was carried out as described above for VEGF-R2, except for the following changes in concentration: FGF-R=50 nM, ATP=2 mM, and poly(E4Y1)=15 mM.

Assay [2] relates to human umbilical vein endothelial cells (HUVEC). The assay is described as follows: HUVEC + VEGF proliferation assay. To be noted: VEGF-stimulated proliferation, final VEGF 6 ng/mL, 72 hours, MTT. The assay is classed as cell-based. How it is done: This assay determines the ability of a test compound to inhibit the growth factor-stimulated proliferation of human umbilical vein endothelial cells (“HUVEC”). HUVEC cells (passage 3–4, Clonetics, Corp.) were thawed into EGM2 culture medium (Clonetics Corp) in T75 flasks. Fresh EGM2 medium was added to the flasks 24 hours later. Four or five days later, cells were exposed to another culture medium (F12K medium supplemented with 10% fetal bovine serum (FBS), […] endothelial cell growth supplement (ECGS), and 0.1 mg/mL heparin). Exponentially-growing HUVEC cells were used in experiments thereafter. Ten to twelve thousand HUVEC cells were plated in 96-well dishes in […] of rich, culture medium (described above). The cells were allowed to attach for 24 hours in this medium. The medium was then removed by aspiration and […] of starvation media (F12K+1% FBS) was added to each well. After 24 hours, […] of test agent dissolved in 1% DMSO in starvation medium or this vehicle alone was added into each treatment well; the final DMSO concentration was 0.1%. One hour later, […] of VEGF (30 ng/mL) in starvation media was added to all wells except those containing untreated controls; the final VEGF concentration was 6 ng/mL. Cellular proliferation was quantified 72 hours later by MTT dye reduction, at which time cells were exposed for 4 hours MTT (Promega Corp.). Dye reduction was stopped by addition of a stop solution (Promega Corp.) and absorbance at 595 nm was determined on a 96-well spectrophotometer plate reader.

The target of assay [3] is T2, unphosphorylated VEGF-R2D50 (FLVK), cytosolic domain of human VEGF-R2 (Homo sapiens, UniProt P35968, DEL940-989/E990V).
T2 construct: VEGF-R2D50 contains residues 806–939 and 990–1171; made in house; host or cells: baculovirus/insect cell system
T2 sequence (P35968 with tags, fused parts or gaps DEL940-989/E990V limits assumed): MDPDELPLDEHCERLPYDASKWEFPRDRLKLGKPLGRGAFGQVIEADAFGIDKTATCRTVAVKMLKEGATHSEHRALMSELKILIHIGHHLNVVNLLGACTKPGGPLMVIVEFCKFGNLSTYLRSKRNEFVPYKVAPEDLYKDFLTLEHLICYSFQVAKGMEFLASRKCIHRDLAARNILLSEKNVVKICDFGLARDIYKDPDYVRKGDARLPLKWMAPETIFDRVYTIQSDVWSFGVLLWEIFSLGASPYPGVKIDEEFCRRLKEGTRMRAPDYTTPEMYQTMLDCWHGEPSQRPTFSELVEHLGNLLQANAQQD
Description: VEGF-R2 coupled spectrophotometric assay (FLVK). The assay is classed as biochemical. The source says:
This construct determines the ability of a test compound to inhibit tyrosine kinase activity. A construct (VEGF-R2D50) of the cytosolic domain of human vascular endothelial growth factor receptor 2 (VEGF-R2) lacking the 50 central residues of the 68 residues of the kinase insert domain was expressed in a baculovirus/insect cell system. Of the 1356 residues of full-length VEGF-R2, VEGF-R2D50 contains residues 806–939 and 990–1171, and also one point mutation (E990V) within the kinase insert domain relative to wild-type VEGF-R2. Autophosphorylation of the purified construct was performed by incubation of the enzyme at a concentration of […] in the presence of 3 mM ATP and 40 mM MgCl2 in 100 mM HEPES, pH 7.5, containing 5% glycerol and 5 mM DTT, at 4° C. for 2 h. […] See Parast et al., Biochemistry, 37, 16788–16801 (1998).
The production of ADP from ATP that accompanies phosphoryl transfer was coupled to oxidation of NADH using phosphoenolpyruvate (PEP) and a system having pyruvate kinase (PK) and lactic dehydrogenase (LDH). The oxidation of NADH was monitored by following the decrease of absorbance at 340 nm (e340=6.22 cm^−1 mM^−1) using a Beckman DU 650 spectrophotometer. Assay conditions for phosphorylated VEGF-R2D50 (indicated as FLVK-P in the tables below) were the following: 1 mM PEP; […]; 50 units of LDH/mL; 20 units of PK/mL; 5 mM DTT; 5.1 mM poly(E4Y1); 1 mM ATP; and 25 mM MgCl2 in 200 mM HEPES, pH 7.5. Assay conditions for unphosphorylated VEGF-R2D50 (indicated as FLVK in the tables) were the following: 1 mM PEP; […]; 50 units of LDH/mL; 20 units of PK/mL; 5 mM DTT; 20 mM poly(E4Y1); 3 mM ATP; and 60 mM MgCl2 and 2 mM MnCl2 in 200 mM HEPES, pH 7.5. Assays were initiated with 5 to 40 nM of enzyme. Ki values were determined by measuring enzyme activity in the presence of varying concentrations of test compounds. The percent inhibition at 50 nm (% inhibition@50 nm) was determined by linear least-squares regression analysis of absorpbance as a function of time. The binding inhibitions were fitted to equation as described by Morrison. The data were analyzed using Enzyme Kinetic and Kaleidagraph software.

For `Cc1ccnc(NC(=O)Cc2ccc(Oc3ccnc4cc(-c5nccn5C)sc34)cc2)c1` [Example 11, 2-{4-[2-(1-Methyl-1H-imidazol-2-yl)-thieno[3,2-b]pyridin-7-yloxy]-phenyl}-N-(4-methyl-pyridin-2-yl)-acetamide], in assay [1], the inhibition at 0.05 µM was 0 to 5%. In addition, in assay [2], the pIC50 is less than 8.00. Moreover, the pKi in assay [3] is greater than 9.00.
The like results for `Cn1ccnc1-c1cc2nccc(Oc3ccc(CC(=O)Nc4cc5ccccc5cn4)cc3)c2s1` [Example 12, N-Isoquinolin-3-yl-2-(4-[2-(1-methyl-1H-imidazol-2-yl)-thieno[3,2-b]pyridin-7-yloxy]-phenyl}-acetamide] were, in that order, 5 to 10%, less than 8.00 and greater than 9.00.
The like results for `Cn1ccnc1-c1cc2nccc(Oc3ccc(CC(=O)Nc4ccc(C(F)(F)F)cn4)cc3)c2s1` [Example 13, 2-{4-[2-(1-Methyl-1H-imidazol-2-yl)-thieno[3,2-b]pyridin-7-yloxy]-phenyl}-N-(5-trifluoromethyl-pyridin-2-yl)-acetamide] were, in that order, 5 to 10%, less than 8.00 and greater than 9.00.
The like results for `Cc1cc(C)nc(NC(=O)Cc2ccc(Oc3ccnc4cc(C(=O)N5CC[C@@H](O)C5)sc34)cc2)c1` [Example 14, N-(4,6-Dimethyl-pyridin-2-yl)-2-{4-[2-((R)-3-hydroxy-pyrrolidine-1-carbonyl)-thieno[3,2-b]pyridin-7-yloxy]-phenyl}-acetamide] were, in that order, 5 to 10%, 8.00 to 9.00 and greater than 9.00.
Consider `Cc1ccnc(NC(=O)Cc2ccc(Oc3ccnc4cc(C(=O)N5CC[C@@H](O)C5)sc34)cc2)c1` [Example 15, 2-{4-[2-((R)-3-Hydroxy-pyrrolidine-1-carbonyl)-thieno[3,2-b]pyridin-7-yloxy]-phenyl}-N-(4-methyl-pyridin-2-yl)-acetamide], for which, in assay [1], the inhibition at 0.05 µM was in the range of 0 to 5%. Further, the pIC50 in assay [2] is greater than 9.00. The pKi in assay [3] was greater than 9.00.
For `O=C(Cc1ccc(Oc2ccnc3cc(C(=O)N4CC[C@@H](O)C4)sc23)cc1)Nc1ccc(Cl)cn1` [Example 16, N-(5-Chloro-pyridin-2-yl)-2-{4-[2-((R)-3-hydroxy-pyrrolidine-1-carbonyl)-thieno[3,2-b]pyridin-7-yloxy]-phenyl}-acetamide], in assay [1], the inhibition at 0.05 µM fell in the range of 0 to 5%. Further, the pIC50 in assay [2] was less than 8.00. The molecule also gave a negative logarithm of the Ki (pKi) in assay [3] of 8.00 to 9.00.
The like results for `O=C(Cc1ccc(Oc2ccnc3cc(C(=O)N4CC[C@@H](O)C4)sc23)cc1)Nc1cc2ccccc2cn1` [Example 17, 2-{4-[2-((R)-3-Hydroxy-pyrrolidine-1-carbonyl)-thieno[3,2-b]pyridin-7-yloxy]-phenyl}-N-isoquinolin-3-yl-acetamide] were, in that order, greater than 10%, less than 8.00 and greater than 9.00.
In the case of `O=C(Cc1ccc(Oc2ccnc3cc(C(=O)N4CC[C@@H](O)C4)sc23)cc1)Nc1ccc(C(F)(F)F)cn1` [Example 18, 2-{4-[2-((R)-3-Hydroxy-pyrrolidine-1-carbonyl)-thieno[3,2-b]pyridin-7-yloxy]-phenyl}-N-(5-trifluoromethyl-pyridin-2-yl)-acetamide], in assay [1], the inhibition at 0.05 µM was in the range of 5 to 10%. Moreover, in assay [2], the pIC50 was less than 8.00. In assay [3], this molecule showed a pKi greater than 9.00.
Regarding `O=C(Cc1ccc(Oc2ccnc3cc(C(=O)N4CC[C@@H](O)C4)sc23)cc1)Nc1ccccn1` [Example 19, 2-{4-[2-((R)-3-Hydroxy-pyrrolidine-1-carbonyl)-thieno[3,2-b]pyridin-7-yloxy]-phenyl}-N-pyridin-2-yl-acetamide], the inhibition at 0.05 µM in assay [1] is 0 to 5%. In addition, in assay [2], the pIC50 was less than 8.00. In assay [3], the pKi was 8.00 to 9.00.
Regarding `O=C(Cc1ccc(Oc2ccnc3cc(C(=O)N4CC[C@@H](O)C4)sc23)cc1)Nc1ccccc1` [Example 20, 2-{4-[2-((R)-3-Hydroxy-pyrrolidine-1-carbonyl)-thieno[3,2-b]pyridin-7-yloxy]-phenyl}-N-phenyl-acetamide], the inhibition at 0.05 µM in assay [1] was 0 to 5%. Besides, the pIC50 in assay [2] was 8.00 to 9.00. The molecule also showed a pKi in assay [3] of 8.00 to 9.00.
`Cc1ccnc(NC(=O)Cc2ccc(Oc3ccnc4cc(C(=O)N5CCC5)sc34)cc2)c1` [Example 23, 2-{4-[2-(Azetidine-1-carbonyl)-thieno[3,2-b]pyridin-7-yloxy]-phenyl}-N-(4-methyl-pyridin-2-yl)-acetamide]: the inhibition at 0.05 µM in assay [1] was in the range of 0 to 5%. Also, the pIC50 in assay [2] was greater than 9.00. Further, the pKi in assay [3] was greater than 9.00.
As to `Cc1ccc(NC(=O)Cc2ccc(Oc3ccnc4cc(C(=O)N5CCC5)sc34)cc2)nc1` [Example 24, 2-{4-[2-(Azetidine-1-carbonyl)-thieno[3,2-b]pyridin-7-yloxy]-phenyl}-N-(5-methyl-pyridin-2-yl)-acetamide], the inhibition at 0.05 µM in assay [1] was 0 to 5%. The pIC50 in assay [2] is 8.00 to 9.00. The molecule also gave a pKi in assay [3] greater than 9.00.
Regarding `Cc1cccc(NC(=O)Cc2ccc(Oc3ccnc4cc(C(=O)N5CCC5)sc34)cc2)n1` [Example 25, 2-{4-[2-(Azetidine-1-carbonyl)-thieno[3,2-b]pyridin-7-yloxy]-phenyl}-N-(6-methyl-pyridin-2-yl)-acetamide], in assay [1], the inhibition at 0.05 µM fell in the range of 5 to 10%. In assay [2], the pIC50 is 8.00 to 9.00. In addition, in assay [3], the pKi was greater than 9.00.
`O=C(Cc1ccc(Oc2ccnc3cc(C(=O)N4CCC4)sc23)cc1)Nc1ccc(C(F)(F)F)cn1` [Example 27, 2-{4-[2-(Azetidine-1-carbonyl)-thieno[3,2-b]pyridin-7-yloxy]-phenyl}-N-(5-trifluoromethyl-pyridin-2-yl)-acetamide]: the inhibition at 0.05 µM in assay [1] lay in the range of 0 to 5%. In addition, the pIC50 in assay [2] is 8.00 to 9.00. Moreover, the pKi in assay [3] was greater than 9.00.
Taken in the same sequence, the figures for `O=C(Cc1ccc(Oc2ccnc3cc(C(=O)N4CCC4)sc23)cc1)Nc1ccc(Cl)cn1` [Example 28, 2-{4-[2-(Azetidine-1-carbonyl)-thieno[3,2-b]pyridin-7-yloxy]-phenyl}-N-(5-chloro-pyridin-2-yl)-acetamide] were 5 to 10%, greater than 9.00 and greater than 9.00.
The like results for `O=C(Cc1ccc(Oc2ccnc3cc(C(=O)N4CCC4)sc23)cc1)Nc1ccc(F)cn1` [Example 29, 2-{4-[2-(Azetidine-1-carbonyl)-thieno[3,2-b]pyridin-7-yloxy]-phenyl}-N-(5-fluoro-pyridin-2-yl)-acetamide] were, in that order, 0 to 5%, less than 8.00 and 8.00 to 9.00.

Broadly, the pIC50 is the IC50 on a negative log10 scale, so that one unit is a factor of ten. The term pKi denotes the negative decadic logarithm of the Ki, by convention in mol/L.
